{"source": "patent US5985926A", "about": "“Method for inhibiting intracellular viral replication” (Cell Therapeutics, Inc., priority 1997, dated 1999)", "key": {"HIV infection": {"test_system": "HIV infection", "settings": "cited from earlier work"}, "[1]": {"test_system": "HIV in chronically infected cell lines", "settings": "cited from earlier work"}, "[2]": {"test_system": "HIV-LTR promoter (tat transactivation) in 293-EBNA cells", "assay": "AP reporter gene expression from HIV-LTR promoter with tat expression vector, 293-EBNA cells", "assay_type": "cell-based, HIV; human cells", "how_it_was_run": "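293-EBNA cells were transiently co-transfected with an HIV-LTR-driven secreted placental alkaline phosphatase reporter and a tat(1–72) expression plasmid. At 24 h, the medium was switched to serum-free AIM V before compounds were added at various concentrations. Secreted AP activity was read colorimetrically at 405 nm 19–24 h later.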"}, "[3]": {"test_system": "CMV promoter in 293-EBNA cells", "assay": "AP reporter gene expression from CMV promoter, 293-EBNA cells stably transfected with pCMV.AP", "assay_type": "cell-based, human cytomegalovirus; human cells", "settings": "Homo sapiens, 293-EBNA; FIG. 8; read-out: concentration inhibiting AP activity by 50% (CMV assay)", "how_it_was_run": "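293-EBNA cells carrying episomal pCMV.AP, expressing secreted placental alkaline phosphatase from the CMV enhancer/promoter, treated with various compound concentrations. Reporter expression read as change in A405 of conditioned medium with substrate such as ortho-nitrophenol phosphate.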"}, "[4]": {"assay": "Viability of 293-EBNA cells, Alamar Blue", "assay_type": "cell-based, human", "settings": "human, 293-ebna cells; read-out: LD50 (CMV assay, FIG. 9)", "how_it_was_run": "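Viability read with Alamar Blue, a vital dye reduced by mitochondrial dehydrogenases to a soluble product. Signal quantified as the absorbance difference between A570 and A600.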"}, "[5]": {"assay": "Viability of 293-EBNA cells (dye not stated)", "settings": "human"}, "[6]": {"test_system": "LPAAT (lysophosphatidate acyl-CoA acyltransferase)", "assay": "LPAAT inhibition in vitro", "assay_type": "biochemical, mammalian", "settings": "Lineweaver-Burke graph", "source_text": "The mammalian cell membrane associated enzyme lysophosphatidate acyl-CoA acyltransferase (LPAAT) catalyzes the transfer of acyl CoA from lysophosphatidic acid (lyso-PA) to phosphatidic acid (PA) species. Certain PA species function as lipid intermediates in cell activation and function directly as intracellular signaling molecules. PA is subsequently dephosphorylated to 1,2-sn diacylglycerol (DAG) via phosphatidate phosphohydrolase (PAH). The compounds that inhibit viral replication, gene expression and viral antigen release in infected cells also have decreased amounts of intracellular PA species that are formed in response to inflammatory cellular activation. […] Therefore, if PA derived from lyso-PA is an important intracellular signaling intermediate for TNF or IL-1 induced viral replication in virally-infectedcells, then inhibitors of PA formation will act to prevent progression of viral diseases by blocking cell signaling to stimulate virion formation."}, "[7]": {"test_system": "HIV-1 in U1 cells (constitutive expression)", "assay": "Constitutive HIV-1 p24 antigen expression in chronically infected U1 cells", "assay_type": "cell-based, HIV-1; human cells", "settings": "U1 cells plated at high density; in words", "experimental": "(§1) Another assay examined the effect of compounds on chronically HIV-1 infected U1 cells. A relatively high density of U1 cells at 10^4 cells/well were incubated in the absence or presence of compounds for 4 days. HIV-1 p24 antigen expression in the culture media was measured by using a ELISA kit (Abbott). Alternatively, U1 cells were plated at a relatively low density of 2×10^3 cell/well plus or minus TNF at 20 pg/ml and plus or minus compounds. The expression of HIV-1 p24 antigen in culture media was measured by ELISA four days later.\n(§2) Stable cell lines 293tar, 293tat and 293tat2 were generated by transfections using conditions described in (Tate et al., FASEB J. 4:227-231, 1990) with the plasmid pHIV.AP alone or along with either pHIV.tat or pSV2tat72, respectively. The assay of HIV-1 p24 antigen expression in the chronically HIV-1-infected promonocytic line U1 after 4 days and in acutely infected peripheral blood lymphocytes (PBL) after 7 days were described (Peterson et al., J. Clin. Invest. 89:574-580, 1992, and Brighty et al., Proc Natl. Acad. Sci. USA 88:7802-7805, 1991).\n(§3) This example illustrates that CT2576 inhibited both constitutive and cytokine-induced HIV expression in a chronically-infected U1 cell line. A chronically HIV-1 infected human promonocyte cell line, U1 (Poli et al., J. Exp. Med. 172:151-158, 1990), was used as a model to see if the inhibitory effect of CT2576 on HIV-LTR driven reporter gene expression could be extended to block HIV replication per se in infected cells. TNF-α and IL-6 have been reported to upregulate the expression of HIV-1 in U1 cells (Poli et al., Proc Natl. Acad. Sci. USA 91:108-112, 1994). U1 cells were plated onto 24-well microtiter plates to study the dose-response effect of CT2576 on the constitutive (10^4 cells/well), TNF-α or IL-6 mediated (2×10^3 cells/well) expression of HIV-1. CT2576 was capable of inhibiting the constitutive, the TNF-α mediated, as well as the IL-6 mediated expression of HIV in U1 cells with an IC50 value of less than 1 μM (FIG. 17)."}, "[8]": {"test_system": "HIV-1 in U1 cells (TNF-α mediated expression)", "assay": "TNF-α-mediated HIV-1 p24 antigen expression in chronically infected U1 cells", "assay_type": "cell-based, HIV-1; human cells", "settings": "U1 cells; in words", "experimental": "as §1, §2, §3"}, "[9]": {"test_system": "HIV in infected monocytic cells", "assay": "HIV replication, gene expression and p24 release in infected monocytic cells stimulated by TNF", "assay_type": "cell-based", "settings": "TNF activation", "experimental": "as §1"}, "[10]": {"test_system": "HIV-LTR promoter / tat protein", "settings": "through interaction with the tat protein; cited from earlier work"}, "[11]": {"test_system": "HIV-1 strain JR-CSF in PBL", "assay": "HIV-1 p24 antigen expression in acutely infected peripheral blood lymphocytes (PBL)", "assay_type": "cell-based, HIV-1; human cells", "settings": "Human immunodeficiency virus 1, Lymphocyte, clinical isolate", "experimental": "FIG. 17 illustrates a dose response curves of CT2576 on constitutive, TNF-α, and IL-6-mediated expression of HIV-1 in a chronically infected U1 cell line (left Y-axis) and of CT3537 on HIV expression in PBL acutely infected with the JR-CSF primary isolate (right Y-axis). U1 cells were incubated for four days after the addition of CT2576 with or without TNF-α (20 pg/ml) or IL-6 (1 ng/ml). PBL were inoculated with HIV at 10 ng virus/10^6 cells/well and incubated with various concentrations of CT3537 for 7 days. Each data point represents the average expression levels of HIV-1 p24-antigen in the cell supernatants measured by ELISA from triplicate samples with error bar indicating the SD.\nas §2, with “1991). […]” for “1991).”"}}, "note": "pIC50: −log10 of the molar value. Entries after “also recorded” stand apart in the source; their conditions may differ."}
{"smiles": "Cc1cn([C@H]2C[C@H](N=[N+]=[N-])[C@@H](CO)O2)c(=O)[nH]c1=O", "note": "[AZT]", "values": [{"measurement": "progression of AIDS disease", "setting": "HIV infection; asymptomatic patients, early stage HIV infection", "value": "no delay in the progression of AIDS disease"}, {"measurement": "CD4+ T cell number", "setting": "HIV infection; treatment versus placebo group", "value": "consistently higher number of CD4^+ T cells"}, {"measurement": "activity on HIV replication in chronically infected cell lines", "setting": "[1]", "value": "not to be active"}]}
{"smiles": "CCCCCCCCNCC(O)CCCCCCCCCn1c(=O)c2[nH]cnc2n(C)c1=O", "note": "(stereo not shown) [CT1416, N-(11-octylamino-10-hydroxyundecyl)-3-methylxanthine]", "values": [{"measurement": "pIC50", "setting": "[2]; Homo sapiens, 293-EBNA, read-out: concentration inhibiting AP expression by 50%", "value": "5.40 to 6.00"}, {"measurement": "pIC50", "setting": "[3]", "value": "5.22 to 5.70"}, {"measurement": "CC50", "setting": "[4]", "value": "~5", "unit": "µM"}, {"measurement": "effect on cell viability / cytotoxicity", "setting": "293-EBNA cells", "value": "some cytotoxicity"}, {"measurement": "CC50", "setting": "[5]", "value": "~5", "unit": "µM"}]}
{"smiles": "C[C@@H](O)CCCCn1c(=O)c2c(ncn2C)n(C)c1=O", "note": "[CT1501R, R-1-(5-hydroxyhexyl)-3,7-dimethylxanthine]", "values": [{"measurement": "mode of LPAAT inhibition", "setting": "[6]", "value": "competitive inhibition"}, {"measurement": "inhibition of AP expression (HIV-LTR promoter)", "setting": "[2]; 293-EBNA cells, HIV promoter, in words", "value": "No appreciable inhibition of AP expression; also recorded: did not affect AP activity"}, {"measurement": "suppression of constitutive HIV-1 expression (p24)", "setting": "[7]", "value": "suppressed constitutive HIV-1 expression"}, {"measurement": "suppression of TNFα-mediated HIV-1 expression (p24)", "setting": "[8]", "value": "suppressed HIV-1 expression"}, {"measurement": "antiviral activity in TNF-stimulated infected monocytic cells", "setting": "[9]", "value": "inhibiting HIV replication, gene expression and p24 release"}, {"measurement": "effect on cell viability / cytotoxicity", "setting": "293-EBNA cells", "value": "did not affect AP activity and cell viability significantly"}]}
{"smiles": "CNC1=Nc2ccc(Cl)cc2C(c2ccc[nH]2)=NC1", "note": "[Ro 24-7429]", "values": [{"measurement": "block of HIV-LTR promoter transcription", "setting": "[10]", "value": "blocks HIV-LTR promoter transcription"}]}
{"smiles": "CCCCCCCCN(CC(CCCCCCCCCn1c(=O)c2c(ncn2C)n(C)c1=O)OC(C)=O)C(C)=O", "note": "(stereo not shown) [CT3537, 1-[11-(N-octylacetamido)-10-acetoxyundecyl]-3,7-dimethylxanthine]", "values": [{"measurement": "pIC50", "setting": "[11]", "value": "> 6.00"}]}
